Results published in patent US8604023B2, “1,4-benzodiazepinone compounds and their use in treating cancer” (The Regents of the University of Michigan, priority 2009, dated 2013).

Assays:
Ramos cells = assay: cytotoxicity in Ramos cells; format: cell-based; conditions: Homo sapiens
Protocol: The compounds listed in Table 5 were tested for cytotoxicity in Ramos cells. The assay was conducted as described in K. M. Johnson et al. Chemistry & Biology 2005, 12, 485-496.

A549/ATCC = assay: cancer cell growth inhibition (SRB); format: cell-based, human; conditions: Non-Small Cell Lung Cancer
EKVX = assay: cancer cell growth inhibition (SRB); format: cell-based, human; conditions: Non-Small Cell Lung Cancer
HOP-62 = assay: cancer cell growth inhibition (SRB); format: cell-based, human; conditions: Non-Small Cell Lung Cancer
HOP-92 = assay: cancer cell growth inhibition (SRB); format: cell-based, human; conditions: Non-Small Cell Lung Cancer
NCI-H226 = assay: cancer cell growth inhibition (SRB); format: cell-based, human; conditions: Non-Small Cell Lung Cancer
NCI-H23 = assay: cancer cell growth inhibition (SRB); format: cell-based, human; conditions: Non-Small Cell Lung Cancer
NCI-H322M = assay: cancer cell growth inhibition (SRB); format: cell-based, human; conditions: Non-Small Cell Lung Cancer
NCI-H460 = assay: cancer cell growth inhibition (SRB); format: cell-based, human; conditions: Non-Small Cell Lung Cancer
NCI-H522 = assay: cancer cell growth inhibition (SRB); format: cell-based, human; conditions: Non-Small Cell Lung Cancer
HCC-2998 = assay: cancer cell growth inhibition (SRB); format: cell-based, human; conditions: Colon Cancer
HCT-15 = assay: cancer cell growth inhibition (SRB); format: cell-based, human; conditions: Colon Cancer
KM12 = assay: cancer cell growth inhibition (SRB); format: cell-based, human; conditions: Colon Cancer
SW-620 = assay: cancer cell growth inhibition (SRB); format: cell-based, human; conditions: Colon Cancer
BT-549 = assay: cancer cell growth inhibition (SRB); format: cell-based, human; conditions: Breast Cancer
HS 578T = assay: cancer cell growth inhibition (SRB); format: cell-based, human; conditions: Breast Cancer
MCF7 = assay: cancer cell growth inhibition (SRB); format: cell-based, human; conditions: Breast Cancer
MDA-MB-231/ATCC = assay: cancer cell growth inhibition (SRB); format: cell-based, human; conditions: Breast Cancer
MDA-MB-435 = assay: cancer cell growth inhibition (SRB); format: cell-based, human; conditions: Breast Cancer
NCI/ADR-RES = assay: cancer cell growth inhibition (SRB); format: cell-based, human; conditions: Breast Cancer
T-47D = assay: cancer cell growth inhibition (SRB); format: cell-based, human; conditions: Breast Cancer
IGROV1 = assay: cancer cell growth inhibition (SRB); format: cell-based, human; conditions: Ovarian Cancer
OVCAR-3 = assay: cancer cell growth inhibition (SRB); format: cell-based, human; conditions: Ovarian Cancer
OVCAR-4 = assay: cancer cell growth inhibition (SRB); format: cell-based, human; conditions: Ovarian Cancer
OVCAR-5 = assay: cancer cell growth inhibition (SRB); format: cell-based, human; conditions: Ovarian Cancer
OVCAR-8 = assay: cancer cell growth inhibition (SRB); format: cell-based, human; conditions: Ovarian Cancer
SK-OV-3 = assay: cancer cell growth inhibition (SRB); format: cell-based, human; conditions: Ovarian Cancer
HL-60(TB) = assay: cancer cell growth inhibition (SRB); format: cell-based, human; conditions: Leukemia
SR = assay: cancer cell growth inhibition (SRB); format: cell-based, human; conditions: Leukemia
786-0 = assay: cancer cell growth inhibition (SRB); format: cell-based, human; conditions: Renal Cancer
A498 = assay: cancer cell growth inhibition (SRB); format: cell-based, human; conditions: Renal Cancer
ACHN = assay: cancer cell growth inhibition (SRB); format: cell-based, human; conditions: Renal Cancer
CAKI-1 = assay: cancer cell growth inhibition (SRB); format: cell-based, human; conditions: Renal Cancer
RXF 393 = assay: cancer cell growth inhibition (SRB); format: cell-based, human; conditions: Renal Cancer
SN12C = assay: cancer cell growth inhibition (SRB); format: cell-based, human; conditions: Renal Cancer
TK-10 = assay: cancer cell growth inhibition (SRB); format: cell-based, human; conditions: Renal Cancer
UO-31 = assay: cancer cell growth inhibition (SRB); format: cell-based, human; conditions: Renal Cancer
LOXIMVI = assay: cancer cell growth inhibition (SRB); format: cell-based, human; conditions: Melanoma
M14 = assay: cancer cell growth inhibition (SRB); format: cell-based, human; conditions: Melanoma
MALME-3M = assay: cancer cell growth inhibition (SRB); format: cell-based, human; conditions: Melanoma
SK-MEL-2 = assay: cancer cell growth inhibition (SRB); format: cell-based, human; conditions: Melanoma
SK-MEL-28 = assay: cancer cell growth inhibition (SRB); format: cell-based, human; conditions: Melanoma
SK-MEL-5 = assay: cancer cell growth inhibition (SRB); format: cell-based, human; conditions: Melanoma
UACC-257 = assay: cancer cell growth inhibition (SRB); format: cell-based, human; conditions: Melanoma
DU-145 = assay: cancer cell growth inhibition (SRB); format: cell-based, human; conditions: Prostate Cancer
PC-3 = assay: cancer cell growth inhibition (SRB); format: cell-based, human; conditions: Prostate Cancer
SF-268 = assay: cancer cell growth inhibition (SRB); format: cell-based, human; conditions: CNS Cancer
SF-295 = assay: cancer cell growth inhibition (SRB); format: cell-based, human; conditions: CNS Cancer
SF-539 = assay: cancer cell growth inhibition (SRB); format: cell-based, human; conditions: CNS Cancer
SNB-19 = assay: cancer cell growth inhibition (SRB); format: cell-based, human; conditions: CNS Cancer
SNB-75 = assay: cancer cell growth inhibition (SRB); format: cell-based, human; conditions: CNS Cancer
U251 = assay: cancer cell growth inhibition (SRB); format: cell-based, human; conditions: CNS Cancer

In the case of `CN1C(=O)C(Cc2ccc3ccccc3c2)N=C(c2cn[nH]c2)c2cc(Cl)ccc21` (stereo not shown) [Compound V-38], the EC50 (Ramos cells) is reported as no more than 5 µM, the “growth inhibition of the cancer cells” value (A549/ATCC) is reported as “++ (40%-75% growth inhibition of the cancer cells)” and the “growth inhibition of the cancer cells” value (EKVX) is reported as “++ (40%-75% growth inhibition of the cancer cells)”. The “growth inhibition of the cancer cells” value (HOP-62) was “+++ (at least 75% growth inhibition of the cancer cells)”, the “growth inhibition of the cancer cells” value (HOP-92) was “++ (40%-75% growth inhibition of the cancer cells)” and the “growth inhibition of the cancer cells” value (NCI-H226) was “++ (40%-75% growth inhibition of the cancer cells)”. The “growth inhibition of the cancer cells” value (NCI-H23) was “+++ (at least 75% growth inhibition of the cancer cells)”, the “growth inhibition of the cancer cells” value (NCI-H322M) was “+ (less than 40% growth inhibition of the cancer cells)” and the “growth inhibition of the cancer cells” value (NCI-H460) was “++ (40%-75% growth inhibition of the cancer cells)”. For the same compound, the “growth inhibition of the cancer cells” value (NCI-H522) was “++ (40%-75% growth inhibition of the cancer cells)”, the “growth inhibition of the cancer cells” value (HCC-2998) was “+++ (at least 75% growth inhibition of the cancer cells)” and the “growth inhibition of the cancer cells” value (HCT-15) was “++ (40%-75% growth inhibition of the cancer cells)”. The “growth inhibition of the cancer cells” value (KM12) was “+++ (at least 75% growth inhibition of the cancer cells)”, the “growth inhibition of the cancer cells” value (SW-620) was “+++ (at least 75% growth inhibition of the cancer cells)” and the “growth inhibition of the cancer cells” value (BT-549) was “+++ (at least 75% growth inhibition of the cancer cells)”. For the same compound, the “growth inhibition of the cancer cells” value (HS 578T) was “+ (less than 40% growth inhibition of the cancer cells)”, the “growth inhibition of the cancer cells” value (MCF7) was “++ (40%-75% growth inhibition of the cancer cells)” and the “growth inhibition of the cancer cells” value (MDA-MB-231/ATCC) was “+ (less than 40% growth inhibition of the cancer cells)”. The “growth inhibition of the cancer cells” value (MDA-MB-435) was “+ (less than 40% growth inhibition of the cancer cells)”, the “growth inhibition of the cancer cells” value (NCI/ADR-RES) was “+ (less than 40% growth inhibition of the cancer cells)” and the “growth inhibition of the cancer cells” value (T-47D) was “+ (less than 40% growth inhibition of the cancer cells)”. For the same compound, the “growth inhibition of the cancer cells” value (IGROV1) was “+++ (at least 75% growth inhibition of the cancer cells)”, the “growth inhibition of the cancer cells” value (OVCAR-3) was “+++ (at least 75% growth inhibition of the cancer cells)” and the “growth inhibition of the cancer cells” value (OVCAR-4) was “++ (40%-75% growth inhibition of the cancer cells)”. For the same compound, the “growth inhibition of the cancer cells” value (OVCAR-5) was “+ (less than 40% growth inhibition of the cancer cells)”, the “growth inhibition of the cancer cells” value (OVCAR-8) was “+ (less than 40% growth inhibition of the cancer cells)” and the “growth inhibition of the cancer cells” value (SK-OV-3) was “+ (less than 40% growth inhibition of the cancer cells)”. The “growth inhibition of the cancer cells” value (HL-60(TB)) was “+ (less than 40% growth inhibition of the cancer cells)”, the “growth inhibition of the cancer cells” value (SR) was “− (an apparent increase in cancer cell growth upon administration of the test compound)” and the “growth inhibition of the cancer cells” value (786-0) was “+++ (at least 75% growth inhibition of the cancer cells)”. The “growth inhibition of the cancer cells” value (A498) was “+++ (at least 75% growth inhibition of the cancer cells)”, the “growth inhibition of the cancer cells” value (ACHN) was “+++ (at least 75% growth inhibition of the cancer cells)” and the “growth inhibition of the cancer cells” value (CAKI-1) was “+ (less than 40% growth inhibition of the cancer cells)”. For the same compound, the “growth inhibition of the cancer cells” value (RXF 393) was “+++ (at least 75% growth inhibition of the cancer cells)”, the “growth inhibition of the cancer cells” value (SN12C) was “++ (40%-75% growth inhibition of the cancer cells)” and the “growth inhibition of the cancer cells” value (TK-10) was “+++ (at least 75% growth inhibition of the cancer cells)”. The “growth inhibition of the cancer cells” value (UO-31) was “+++ (at least 75% growth inhibition of the cancer cells)”, the “growth inhibition of the cancer cells” value (LOXIMVI) was “+++ (at least 75% growth inhibition of the cancer cells)” and the “growth inhibition of the cancer cells” value (M14) was “+++ (at least 75% growth inhibition of the cancer cells)”. The “growth inhibition of the cancer cells” value (MALME-3M) was “+++ (at least 75% growth inhibition of the cancer cells)”, the “growth inhibition of the cancer cells” value (SK-MEL-2) was “++ (40%-75% growth inhibition of the cancer cells)” and the “growth inhibition of the cancer cells” value (SK-MEL-28) was “+++ (at least 75% growth inhibition of the cancer cells)”. For the same compound, the “growth inhibition of the cancer cells” value (SK-MEL-5) was “+++ (at least 75% growth inhibition of the cancer cells)”, the “growth inhibition of the cancer cells” value (UACC-257) was “+++ (at least 75% growth inhibition of the cancer cells)” and the “growth inhibition of the cancer cells” value (DU-145) was “+++ (at least 75% growth inhibition of the cancer cells)”. The “growth inhibition of the cancer cells” value (PC-3) was “+ (less than 40% growth inhibition of the cancer cells)”, the “growth inhibition of the cancer cells” value (SF-268) was “+++ (at least 75% growth inhibition of the cancer cells)” and the “growth inhibition of the cancer cells” value (SF-295) was “+ (less than 40% growth inhibition of the cancer cells)”. For the same compound, the “growth inhibition of the cancer cells” value (SF-539) was “+++ (at least 75% growth inhibition of the cancer cells)”, the “growth inhibition of the cancer cells” value (SNB-19) was “++ (40%-75% growth inhibition of the cancer cells)” and the “growth inhibition of the cancer cells” value (SNB-75) was “+++ (at least 75% growth inhibition of the cancer cells)”. The “growth inhibition of the cancer cells” value (U251) was “+++ (at least 75% growth inhibition of the cancer cells)”.
